Source: US20250195521A1 (Revolution Medicines, Inc., priority 2020, published 2025)
Like-named read-outs stand apart in the source and are kept apart here.

Columns and labels:
[1] = system: NCI-H358 cells (K-Ras G12C); experiment: CellTiter-Glo cell viability, NCI-H358; assay type: cell-based, human; settings: K-Ras G12C, 5-day treatment, read-out: H358 Cell Viability IC50
How it was run: (§1)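 Five-day treatment of K-Ras mutant cells with directly dispensed compound; ATP-based luminescence endpoint. Percent of DMSO signal fit to four-parameter logistic curve.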

[2] = system: Capan-1 cells (K-Ras G12V); experiment: CellTiter-Glo cell viability, Capan-1; assay type: cell-based, human; settings: K-Ras G12V, 5-day treatment, read-out: Capan-1 Cell Viability IC50
How it was run: as §1

[3] = system: K-Ras G12C (NCI-H358 cells); experiment: Potency assay: pERK in NCI-H358 cells; assay type: cell-based, human; settings: NCI-H358 cells, 4 hours, read-out: pERK EC50 (H358 KRAS G12C)
How it was run: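 Cells plated the day before were exposed for 4 h at 37° C, 5% CO2 to a 10-point, 3-fold DMSO dilution series (10 mM top stock), in duplicate. Phospho-ERK was read by AlphaLISA SureFire Ultra or by In-Cell Western with DRAQ5 DNA stain, and IC50 came from a 4-parameter sigmoidal fit.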

[4] = target: K-Ras G12C(GMP-PNP) binding to BRAF RBD (Homo sapiens (Human), UniProt P01116+P62937, G12C); experiment: Disruption of BRAF RBD interaction with K-Ras (FRET / MOA assay), K-Ras G12C; assay type: biochemical
Chain of K-Ras G12C(GMP-PNP) binding to BRAF RBD (P01116 other isoform, or with tags, fused parts or gaps G12C): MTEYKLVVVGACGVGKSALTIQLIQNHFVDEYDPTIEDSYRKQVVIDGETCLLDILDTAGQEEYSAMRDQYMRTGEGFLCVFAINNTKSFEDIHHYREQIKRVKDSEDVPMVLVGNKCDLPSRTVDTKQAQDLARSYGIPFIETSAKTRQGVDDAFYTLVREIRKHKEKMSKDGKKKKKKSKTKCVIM
Chain of K-Ras G12C(GMP-PNP) binding to BRAF RBD (P62937 whole entry): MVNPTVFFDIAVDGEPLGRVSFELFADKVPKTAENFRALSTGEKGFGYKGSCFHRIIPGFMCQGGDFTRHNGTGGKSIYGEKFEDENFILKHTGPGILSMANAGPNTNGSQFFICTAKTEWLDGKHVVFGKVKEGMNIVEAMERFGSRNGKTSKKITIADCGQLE
How it was run: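 TR-FRET readout: after 3 h compound incubation at 25 °C, anti-His Eu and anti-GST allophycocyanin (10 and 50 nM final) added for a further 1.5 h. Dilution series was 10-point, 3-fold, top 30 μM final. Ras–cyclophilin A ternary complex formation blocks the BRAF RBD interaction; IC50 derived from reduced FRET ratio relative to DMSO.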

SMILES	IC50 ([1]; Homo sapiens, NCI-H358, 120 h) [nM]	IC50 ([2]; Homo sapiens, CAPAN-1, 120 h) [nM]	EC50 ([3]; Homo sapiens) [nM]	IC50 ([4]; KRAS G12C FRET IC50) [nM]	IC50 ([4]; read-out: KRAS G12C FRET IC50) [nM]	IC50 [1] [nM]	IC50 [2] [nM]	EC50 [3] [nM]
CCn1c(-c2cccnc2[C@H](C)OC)c2c3cc(ccc31)-c1csc(n1)C[C@H](NC(=O)[C@H](C(C)C)N(C)C(=O)C1COC1)C(=O)N1CCC[C@H](N1)C(=O)OCC(C)(C)C2 [Compound A245]	100 to 1000	100 to 1000	< 5000	< 10	–	–	–	–
CCn1c(-c2cccnc2[C@H](C)OC)c2c3cc(ccc31)-c1cccc(c1)C[C@H](NC(=O)[C@H](C(C)C)N(C)C(=O)C1COC1)C(=O)N1CCC[C@H](N1)C(=O)OCC(C)(C)C2 [Compound A246]	–	1000 to 10000	< 5000	–	< 10	–	–	–
CCn1c(-c2cccnc2[C@H](C)OC)c2c3cc(ccc31)-c1cc(O)cc(c1)C[C@H](NC(=O)[C@H](C(C)C)N(C)C(=O)C1CC(=O)N(C3CC3)C1)C(=O)N1CCC[C@H](N1)C(=O)OCC(C)(C)C2 (some centres unmarked) [Compound A252]	–	100 to 1000	< 5000	–	10 to 100	–	–	–
CCn1c(-c2cnccc2COC)c2c3cc(ccc31)-c1cc(O)cc(c1)C[C@H](NC(=O)[C@H](C(C)C)N(C)C(=O)N1CCNCC1)C(=O)N1CCC[C@H](N1)C(=O)OCC(C)(C)C2 [Compound A255]	–	> 10000	< 5000	–	< 10	–	–	–
CCn1c(-c2cccnc2[C@H](C)OC)c2c3cc(ccc31)-c1csc(n1)C[C@H](NC(=O)[C@H](C(C)C)N(C)C(=O)N1CCN(C(C)=O)CC1)C(=O)N1CCC[C@H](N1)C(=O)OCC(C)(C)C2 [Compound A291]	–	10 to 100	< 5000	–	< 10	–	–	–
CCn1c(-c2cccnc2[C@H](C)OC)c2c3cc(ccc31)-c1csc(n1)C[C@H](NC(=O)[C@H](C(C)C)N(C)C(=O)N1C[C@@H](C)N(C)C[C@@H]1C)C(=O)N1CCC[C@H](N1)C(=O)OCC(C)(C)C2 [Compound A292]	100 to 1000	100 to 1000	< 5000	–	< 10	–	–	–
CCn1c(-c2cccnc2[C@H](C)OC)c2c3cc(ccc31)-c1csc(n1)C[C@H](NC(=O)[C@H](C(C)C)N(C)C(=O)N1CC(N3CCC3)C1)C(=O)N1CCC[C@H](N1)C(=O)OCC(C)(C)C2 [Compound A295]	10 to 100	10 to 100	< 5000	–	10 to 100	–	–	–
CCn1c(-c2cccnc2[C@H](C)OC)c2c3cc(ccc31)-c1csc(n1)C[C@H](NC(=O)[C@H](C(C)C)N(C)C(=O)N1C[C@H](C)N(C)C[C@H]1C)C(=O)N1CCC[C@H](N1)C(=O)OCC(C)(C)C2 [Compound A300]	–	1000 to 10000	< 5000	–	< 10	–	–	–
CCn1c(-c2cccnc2[C@H](C)OC)c2c3cc(ccc31)-c1csc(n1)C[C@H](NC(=O)[C@H](C(C)C)N1CCCN(C)C1=O)C(=O)N1CCC[C@H](N1)C(=O)OCC(C)(C)C2 [Compound A317]	100 to 1000	1000 to 10000	< 5000	–	< 10	–	–	–
CCn1c(-c2cccnc2[C@H](C)OC)c2c3cc(ccc31)-c1cc(O)cc(c1)C[C@H](NC(=O)[C@@H]1[C@@H](C)CCCN1C(C)=O)C(=O)N1CCC[C@H](N1)C(=O)OCC(C)(C)C2 [Compound A324]	–	1000 to 10000	< 5000	–	< 10	–	–	–
CCn1c(-c2cccnc2[C@H](C)OC)c2c3cc(ccc31)-c1csc(n1)C[C@H](NC(=O)[C@H](C(C)C)N(C)C(=O)N1CC(N3CCOCC3)C1)C(=O)N1CCC[C@H](N1)C(=O)OCC(C)(C)C2 [Compound A338]	–	10 to 100	< 5000	–	10 to 100	–	–	–
CCN(CC)C(=O)N(C)[C@H](C(=O)N[C@H]1Cc2nc(cs2)-c2ccc3c(c2)c(c(-c2cccnc2[C@H](C)OC)n3CC)CC(C)(C)COC(=O)[C@@H]2CCCN(N2)C1=O)C(C)C [Compound A351]	10 to 100	100 to 1000	< 5000	–	< 10	–	–	–
CCn1c(-c2cccnc2[C@H](C)OC)c2c3cc(ccc31)-c1csc(n1)C[C@H](NC(=O)C1CC1)C(=O)N1CCC[C@H](N1)C(=O)OCC(C)(C)C2 [Compound A367]	100 to 1000	100 to 1000	< 5000	–	10 to 100	–	–	–
CCn1c(-c2cccnc2[C@H](C)OC)c2c3cc(ccc31)-c1cc(O)cc(c1)C[C@H](NC(=O)[C@H](C(C)C)N(C)C(=O)[C@H]1CCN(C(=O)[C@@H](C)N(C)C)C1)C(=O)N1CCC[C@H](N1)C(=O)OCC(C)(C)C2 [Compound A386]	100 to 1000	100 to 1000	< 5000	–	10 to 100	–	–	–
CCn1c(-c2cc(N3CCN(C)CC3)cnc2[C@H](C)OC)c2c3cc(ccc31)-c1nc(co1)C[C@H](NC(=O)[C@H]1[C@H](C)[C@@H]1C)C(=O)N1CCC[C@H](N1)C(=O)OCC(C)(C)C2 [Compound A391, (1r,2R,3S)—N-((6^3S,4S,Z)-1^1-ethyl-1^2-(2-((S)-1-methoxyethyl)-5-(4-methylpiperazin-1-yl)pyridin-3-yl)-10,10-dimethyl-5,7-dioxo-6^1,6^2,6^3,6^4,6^5,6^6-hexahydro-1^1H-8-oxa-2 (2,4)-oxazola-1 (5,3)-indola-6 (1,3)-pyridazinacycloundecaphane-4-yl)-2,3-dimethylcyclopropane-1-carboxamide]	–	–	–	–	< 10	10 to 100	1000 to 10000	< 5000
CCn1c(-c2cccnc2[C@H](C)OC)c2c3cc(ccc31)-c1cc(O)cc(c1)C[C@H](NC(=O)[C@H](C(C)C)N(C)C(=O)[C@@H]1CCCC[C@@H]1N)C(=O)N1CCC[C@H](N1)C(=O)OCC(C)(C)C2 [Compound A395]	100 to 1000	100 to 1000	< 5000	–	100 to 1000	–	–	–
CCn1c(-c2cccnc2[C@H](C)OC)c2c3cc(ccc31)-c1csc(n1)C[C@H](NC(=O)[C@H](C(C)C)N(C)C(=O)N1CCOC[C@@H]1C)C(=O)N1CCC[C@H](N1)C(=O)OCC(C)(C)C2 [Compound A403]	10 to 100	10 to 100	< 5000	–	< 10	–	–	–
CCn1c(-c2cccnc2[C@H](C)OC)c2c3cc(ccc31)-c1cc(O)cc(c1)C[C@H](NC(=O)[C@H](C(C)C)N(C)C(=O)C1CN3CCCN1CC3)C(=O)N1CCC[C@H](N1)C(=O)OCC(C)(C)C2 (some centres unmarked) [Compound A404]	–	> 10000	< 5000	–	100 to 1000	–	–	–
CCn1c(-c2cccnc2[C@H](C)OC)c2c3cc(ccc31)-c1cc(O)cc(c1)C[C@H](NC(=O)[C@H](C(C)C)N(C)C(=O)C13CC(CO1)C3)C(=O)N1CCC[C@H](N1)C(=O)OCC(C)(C)C2 [Compound A406]	10 to 100	100 to 1000	< 5000	–	100 to 1000	–	–	–
CCn1c(-c2cccnc2[C@H](C)OC)c2c3cc(ccc31)-c1csc(n1)C[C@H](NC(=O)[C@H](C(C)C)N(C)C(=O)N1CC[C@H]1CN)C(=O)N1CCC[C@H](N1)C(=O)OCC(C)(C)C2 [Compound A463]	–	1000 to 10000	< 5000	–	10 to 100	–	–	–
CCn1c(-c2cccnc2[C@H](C)OC)c2c3cc(ccc31)-c1csc(n1)C[C@H](NC(=O)[C@H](C(C)C)N(C)C(=O)N1CC[C@]3(CCNC3=O)C1)C(=O)N1CCC[C@H](N1)C(=O)OCC(C)(C)C2 [Compound A479]	–	1000 to 10000	< 5000	–	< 10	–	–	–
CCn1c(-c2cccnc2[C@H](C)OC)c2c3cc(ccc31)-c1csc(n1)C[C@H](NC(=O)[C@H](C(C)C)N(C)C(=O)N1CCC13CCS(=O)(=O)CC3)C(=O)N1CCC[C@H](N1)C(=O)OCC(C)(C)C2 [Compound A530]	–	100 to 1000	< 5000	–	100 to 1000	–	–	–
CCn1c(-c2cccnc2[C@H](C)OC)c2c3cc(ccc31)-c1csc(n1)C[C@H](NC(=O)[C@H](C(C)C)N(C)C(=O)N1CC[C@@H]1CN)C(=O)N1CCC[C@H](N1)C(=O)OCC(C)(C)C2 [Compound A558]	–	100 to 1000	< 5000	–	10 to 100	–	–	–
